Test results as given in US20200216416A1, “QUINOLINE COMPOUNDS AS INHIBITORS OF TAM AND MET KINASES” (Array BioPharma Inc., priority 2019, published 2020).

Assays:
[1] = target: T1, human MET kinase F1200I (Homo sapiens, UniProt P08581, F1200I); test: c-Met Enzyme Assay, F1200I mutant; assay type: binding; settings: averaged IC50; F1200I 2 nM; 60-minute incubation at 22° C.
T1 construct: GST-tagged recombinant human MET kinase domain; purchased Signal Chem
Description: (§1) The affinity of compound binding to wild type and mutant human MET kinases was measured using Invitrogen's LanthaScreen™ Eu Kinase Binding technology. Briefly, GST-tagged recombinant human MET kinase domain from Signal Chem (see Table 8 below for concentration in assay) was incubated with 50 nM Alexa-Fluor® Tracer 236 (Invitrogen Cat No. PR9078A) and 2 nM Europium-anti-GST (Invitrogen Cat. No. A15116) along with test compound in a buffer consisting of 25 mM HEPES, pH 7.4, 10 mM MgCl2, 0.01% Triton X-100, 1mM DTT, and 2% DMSO. Compounds were typically prepared in a three-fold serial dilution in DMSO and added to the assay to give the appropriate final concentration. After a 60-minute incubation at 22° C., the reaction was measured using a PerkinElmer EnVision multimode plate reader via TR-FRET dual wavelength detection, and the percent of control (POC) calculated using a ratiometric emission factor. […] The POC values were fit to a 4 parameter logistic curve and the IC50 value is point where the curve crosses 50 POC.

[2] = target: T2, MET (wt) GST-tagged recombinant human MET kinase domain (Homo sapiens, UniProt P08581); test: c-Met Enzyme Assay, wild type (LanthaScreen Eu Kinase Binding); settings: averaged IC50; MET (wt) 10 nM; 60-minute incubation at 22° C.; read-out: SigChem WT IC50
T2 construct: GST-tagged recombinant human MET kinase domain; purchased Signal Chem
Description: as §1

[3] = target: T3, human MET kinase del Ex14 (Homo sapiens, UniProt P08581, DEL963-1009); test: c-Met Enzyme Assay, del Ex14 mutant; assay type: binding; settings: averaged IC50; del Ex14 5 nM; 60-minute incubation at 22° C.; read-out: Del14 IC50
T3 construct: GST-tagged recombinant human MET kinase domain; purchased Signal Chem
Description: as §1

[4] = target: T4, human MET kinase Y1230C (Homo sapiens, UniProt P08581, Y1230C); test: c-Met Enzyme Assay, Y1230C mutant; assay type: binding; settings: averaged IC50; Y1230C 2 nM; 60-minute incubation at 22° C.; read-out: Y1230 C IC50
T4 construct: GST-tagged recombinant human MET kinase domain; purchased Signal Chem
Description: as §1

[5] = target: T5, human MET kinase Y1230S (Homo sapiens, UniProt P08581, Y1230S); test: c-Met Enzyme Assay, Y1230S mutant; assay type: binding; settings: averaged IC50; Y1230S 8 nM; 60-minute incubation at 22° C.; read-out: Y1230 S IC50
T5 construct: GST-tagged recombinant human MET kinase domain; purchased Signal Chem
Description: as §1

[6] = target: T6, human MET kinase D1228H (Homo sapiens, UniProt P08581, D1228H); test: c-Met Enzyme Assay, D1228H mutant; assay type: binding; settings: averaged IC50; D1228H 2 nM; 60-minute incubation at 22° C.; read-out: D1228 H IC50
T6 construct: GST-tagged recombinant human MET kinase domain; purchased Signal Chem
Description: as §1

[7] = target: T7, GST-tagged recombinant human TYRO3 kinase domain (Homo sapiens, UniProt Q06418); test: TYRO3 Enzyme Assay (LanthaScreen Eu Kinase Binding); settings: averaged IC50; TYRO3 5 nM; 60-minute incubation at 22° C.; TR-FRET
T7 construct: GST-tagged recombinant human TYRO3 kinase domain; purchased Carna PR7480A
T7 sequence (Q06418 518-790 limits assumed): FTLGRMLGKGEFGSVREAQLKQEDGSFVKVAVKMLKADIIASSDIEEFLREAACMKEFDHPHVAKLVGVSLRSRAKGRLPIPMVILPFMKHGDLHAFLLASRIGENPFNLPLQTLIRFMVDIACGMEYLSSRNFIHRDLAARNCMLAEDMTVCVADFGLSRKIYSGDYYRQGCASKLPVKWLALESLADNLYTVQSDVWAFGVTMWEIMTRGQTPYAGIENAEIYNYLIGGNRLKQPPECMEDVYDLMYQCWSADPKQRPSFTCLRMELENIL
Description: Compounds disclosed herein were screened for their ability to inhibit TYRO3 kinase using Invitrogen's LanthaScreenTM Eu Kinase Binding technology. GST-tagged recombinant human TYRO3 kinase domain from Carna (5 nM; Cat. No. P[…]) was incubated with 20 nM Alexa-Fluor® Tracer 236 (P[…]) and 2 nM Europium-anti-GST (Cat. No. A15116) along with test compound in a buffer consisting of 25 mM HEPES, pH 7.4, 10 mM MgCl2, 0.01% Triton X-100, and 2% DMSO. Compounds are typically prepared in a threefold serial dilution in DMSO and added to the assay to give the appropriate final concentration. After a 60-minute incubation at 22° C., the reaction was measured using a PerkinElmer EnVision multimode plate reader via TR-FRET dual wavelength detection, and the percent of control (POC) calculated using a ratiometric emission factor. […] The POC values were fit to a 4 parameter logistic curve and the IC50 value is point where the curve crosses 50 POC.

T1 sequence (P08581 1078-1345 F1200I limits assumed): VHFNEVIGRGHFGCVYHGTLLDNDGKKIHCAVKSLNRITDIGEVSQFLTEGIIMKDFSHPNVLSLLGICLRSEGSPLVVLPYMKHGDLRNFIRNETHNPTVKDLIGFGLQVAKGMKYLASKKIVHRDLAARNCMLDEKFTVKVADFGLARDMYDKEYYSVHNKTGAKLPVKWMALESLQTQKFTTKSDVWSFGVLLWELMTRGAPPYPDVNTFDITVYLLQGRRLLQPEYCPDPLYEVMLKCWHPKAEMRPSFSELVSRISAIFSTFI
T4 sequence (P08581 1078-1345 Y1230C): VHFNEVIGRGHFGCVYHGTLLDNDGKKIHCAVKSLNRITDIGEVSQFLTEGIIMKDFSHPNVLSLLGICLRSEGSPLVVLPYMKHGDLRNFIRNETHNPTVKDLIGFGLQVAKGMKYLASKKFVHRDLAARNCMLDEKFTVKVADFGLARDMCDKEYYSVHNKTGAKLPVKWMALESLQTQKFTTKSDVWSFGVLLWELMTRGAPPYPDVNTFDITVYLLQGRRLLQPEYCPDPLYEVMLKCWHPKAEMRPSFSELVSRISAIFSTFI
T6 sequence (P08581 1078-1345 D1228H): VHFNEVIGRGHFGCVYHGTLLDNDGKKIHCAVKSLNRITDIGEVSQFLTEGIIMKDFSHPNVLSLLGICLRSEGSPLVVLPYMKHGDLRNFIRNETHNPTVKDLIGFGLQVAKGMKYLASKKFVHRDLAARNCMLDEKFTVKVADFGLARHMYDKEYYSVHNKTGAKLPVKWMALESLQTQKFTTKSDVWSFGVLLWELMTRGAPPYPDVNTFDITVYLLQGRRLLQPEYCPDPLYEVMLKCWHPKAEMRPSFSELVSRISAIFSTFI
T3 sequence (P08581 with tags, fused parts or gaps DEL963-1009 limits assumed): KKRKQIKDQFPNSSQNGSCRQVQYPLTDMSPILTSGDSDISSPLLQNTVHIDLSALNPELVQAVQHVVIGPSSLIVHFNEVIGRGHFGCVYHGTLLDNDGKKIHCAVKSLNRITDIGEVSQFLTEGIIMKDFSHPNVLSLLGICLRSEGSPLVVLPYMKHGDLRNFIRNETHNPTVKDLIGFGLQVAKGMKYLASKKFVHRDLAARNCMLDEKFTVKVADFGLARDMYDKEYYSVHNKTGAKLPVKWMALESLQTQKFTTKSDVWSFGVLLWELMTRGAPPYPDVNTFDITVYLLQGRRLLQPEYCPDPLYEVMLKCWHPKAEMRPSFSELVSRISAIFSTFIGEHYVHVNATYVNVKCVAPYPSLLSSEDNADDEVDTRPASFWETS
T5 sequence (P08581 1078-1345 Y1230S): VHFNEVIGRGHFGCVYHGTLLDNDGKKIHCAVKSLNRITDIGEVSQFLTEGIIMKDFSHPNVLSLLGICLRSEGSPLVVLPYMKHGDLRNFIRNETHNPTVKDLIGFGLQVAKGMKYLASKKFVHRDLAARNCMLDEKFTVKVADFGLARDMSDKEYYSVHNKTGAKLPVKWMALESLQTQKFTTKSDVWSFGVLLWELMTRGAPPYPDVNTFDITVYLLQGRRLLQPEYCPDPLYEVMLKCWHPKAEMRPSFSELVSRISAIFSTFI
T2 sequence (P08581 1078-1345 limits assumed): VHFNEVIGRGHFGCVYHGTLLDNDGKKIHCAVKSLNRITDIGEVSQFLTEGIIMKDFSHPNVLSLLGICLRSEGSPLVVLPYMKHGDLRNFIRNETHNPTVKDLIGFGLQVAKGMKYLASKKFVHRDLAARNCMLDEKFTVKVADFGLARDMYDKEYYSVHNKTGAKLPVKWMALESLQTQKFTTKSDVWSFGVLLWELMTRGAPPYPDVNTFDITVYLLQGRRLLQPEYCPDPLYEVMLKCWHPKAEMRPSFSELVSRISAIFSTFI

CCC(CC)n1cc(C(=O)Nc2ccc(Oc3ccnc4cc(OC)c(OC)cc34)cn2)c(=O)c(-c2ccc(F)cc2F)c1 [Example 16, 5-(2,4-difluorophenyl)-N-(5-((6,7-dimethoxyquinolin-4yl)oxy)pyridin-2-yl)-4-oxo-1-(pentan-3-yl)-1,4-dihydropyridine-3-carboxamide]
IC50 [1]: 6.8 nM | IC50 [2]: 6.1 nM | IC50 [3]: 4.6 nM | IC50 [4]: 6.1 nM | IC50 [5]: 6 nM | IC50 [6]: 5.4 nM | IC50 [7]: 11 nM

CCCC(CCC)n1cc(C(=O)Nc2ccc(Oc3ccnc4cc(OC)c(OC)cc34)cn2)c(=O)c(-c2ccc(F)cc2F)c1 [Example 17, 5-(2,4-difluorophenyl)-N-(5-((6,7-dimethoxyquinolin-4yl)oxy)pyridin-2-yl)-1-(heptan-4-yl)-4-oxo-1,4-dihydropyridine-3-carboxamide]
IC50 [1]: 23.4 nM | IC50 [2]: 17.8 nM | IC50 [3]: 17.1 nM | IC50 [4]: 15.5 nM | IC50 [5]: 11.4 nM | IC50 [6]: 13.3 nM | IC50 [7]: 76 nM

COc1cc2nccc(Oc3ccc(NC(=O)c4cn(C(C)C)cc(-c5ccc(F)cc5Cl)c4=O)nc3)c2cc1OC [Example 18, 5-(2-chloro-4-fluorophenyl)-N-(5-((6,7-dimethoxyquinolin-4-yl)oxy)pyridin-2-yl)-1-isopropyl-4-oxo-1,4-dihydropyridine-3-carboxamide]
IC50 [1]: 4.3 nM | IC50 [2]: 2.7 nM | IC50 [3]: 3.2 nM | IC50 [4]: 2.4 nM | IC50 [5]: 2.7 nM | IC50 [6]: 2.4 nM | IC50 [7]: 4 nM

COc1cc2nccc(Oc3ccc(NC(=O)c4cn(C(C)C)cc(-c5ccc(F)cc5C)c4=O)nc3)c2cc1OC [Example 19, N-(5-((6,7-dimethoxyquinolin-4yl)oxy)pyridin-2-yl)-5-(4-fluoro-2-methylphenyl)-1-isopropyl-4-oxo-1,4-dihydropyridine-3-carboxamide]
IC50 [1]: 2.8 nM | IC50 [2]: 1.8 nM | IC50 [3]: 1.9 nM | IC50 [4]: 2 nM | IC50 [5]: 1.8 nM | IC50 [6]: 1.6 nM | IC50 [7]: 4 nM

COc1cc(-c2cn(C(C)C)cc(C(=O)Nc3ccc(Oc4ccnc5cc(OC)c(OC)cc45)cn3)c2=O)ccc1F [Example 20, N-(5-((6,7-dimethoxyquinolin-4yl)oxy)pyridin-2-yl)-5-(4-fluoro-3-methoxyphenyl)-1-isopropyl-4-oxo-1,4-dihydropyridine-3-carboxamide]
IC50 [1]: 5.1 nM | IC50 [2]: 5.2 nM | IC50 [3]: 3.8 nM | IC50 [4]: 7.7 nM | IC50 [5]: 6.2 nM | IC50 [6]: 9.9 nM | IC50 [7]: 6 nM

COc1cc2nccc(Oc3ccc(NC(=O)c4cn(C(C)C)cc(-c5ccc(F)c(Cl)c5)c4=O)nc3)c2cc1OC [Example 21, 5-(3-chloro-4-fluorophenyl)-N-(5-((6,7-dimethoxyquinolin-4-yl)oxy)pyridin-2-yl)-1-isopropyl-4-oxo-1,4-dihydropyridine-3-carboxamide]
IC50 [1]: 16.2 nM | IC50 [2]: 13.5 nM | IC50 [3]: 13.6 nM | IC50 [4]: 20.4 nM | IC50 [5]: 29.2 nM | IC50 [6]: 18.7 nM | IC50 [7]: 26 nM

CNC(=O)Cn1cc(C(=O)Nc2ccc(Oc3ccnc4cc(OC)c(OC)cc34)cn2)c(=O)c(-c2ccc(F)cc2)c1 [Example 22]
IC50 [1]: 2.5 nM | IC50 [2]: 1.8 nM | IC50 [3]: 3.1 nM | IC50 [4]: 2 nM | IC50 [5]: 2.2 nM | IC50 [6]: 4.2 nM | IC50 [7]: 14 nM

COc1cc2nccc(Oc3ccc(NC(=O)c4cn(CC(=O)N(C)C)cc(-c5ccc(F)cc5)c4=O)nc3)c2cc1OC [Example 23, N-(5-((6,7-dimethoxyquinolin-4yl)oxy)pyridin-2-yl)-1-(2-(dimethylamino)-2-oxoethyl)-5-(4-fluorophenyl)-4-oxo-1,4-dihydropyridine-3-carboxamide]
IC50 [1]: 4.3 nM | IC50 [2]: 2.8 nM | IC50 [3]: 2.9 nM | IC50 [4]: 14.5 nM | IC50 [5]: 3.8 nM | IC50 [6]: 11.5 nM | IC50 [7]: 14 nM

COc1cc2nccc(Oc3ccc(NC(=O)c4cn(CC(=O)N(C)C)cc(-c5ccc(F)c(F)c5)c4=O)nc3)c2cc1OC [Example 24, 5-(3,4-difluorophenyl)-N-(5-((6,7-dimethoxyquinolin-4-yl)oxy)pyridin-2-yl)-1-(2-(dimethylamino)-2-oxoethyl)-4-oxo-1,4-dihydropyridine-3-carboxamide]
IC50 [1]: 11.2 nM | IC50 [2]: 7.8 nM | IC50 [3]: 10.5 nM | IC50 [4]: 14.3 nM | IC50 [5]: 16.5 nM | IC50 [6]: 15.2 nM | IC50 [7]: 54 nM

COc1cc2nccc(Oc3ccc(NC(=O)c4cn(CC(=O)N(C)C)cc(-c5ccc(Cl)cc5)c4=O)nc3)c2cc1OC [Example 25]
IC50 [1]: 11.5 nM | IC50 [2]: 8.2 nM | IC50 [3]: 9.5 nM | IC50 [4]: 10.4 nM | IC50 [5]: 8 nM | IC50 [6]: 22.3 nM | IC50 [7]: 54 nM

COc1cc2nccc(Oc3ccc(NC(=O)c4c[nH]cc(-c5ccc(F)cc5)c4=O)nc3)c2cc1OC [Example 26, N-(5-((6,7-dimethoxyquinolin-4yl)oxy)pyridin-2-yl)-5-(4-fluorophenyl)-4-oxo-1,4-dihydropyridine-3-carboxamide]
IC50 [1]: 6.4 nM | IC50 [2]: 6 nM | IC50 [3]: 5.2 nM | IC50 [4]: 6.5 nM | IC50 [5]: 9.1 nM | IC50 [6]: 12.5 nM | IC50 [7]: 15 nM

COc1cc2nccc(Oc3ccc(NC(=O)c4cn(C(C)C)c(C)c(-c5ccc(F)cc5)c4=O)nc3)c2cc1OC [Example 27, N-(5-((6,7-dimethoxyquinolin-4yl)oxy)pyridin-2-yl)-5-(4-fluorophenyl)-1-isopropyl-6-methyl-4-oxo-1,4-dihydropyridine-3-carboxamide]
IC50 [1]: 1.6 nM | IC50 [2]: 1.8 nM | IC50 [3]: 1.1 nM | IC50 [4]: 1.5 nM | IC50 [5]: 1.1 nM | IC50 [6]: 1.1 nM | IC50 [7]: 3 nM

COc1cc2nccc(Oc3ccc(NC(=O)c4cn(C(C)C)c(C)c(-c5ccc(F)c(F)c5)c4=O)nc3)c2cc1OC [Example 28, 5-(3,4-difluorophenyl)-N-(5-((6,7-dimethoxyquinolin-4yl)oxy)pyridin-2-yl)-1-isopropyl-6-methyl-4-oxo-1,4-dihydropyridine-3-carboxamide]
IC50 [1]: 2.4 nM | IC50 [2]: 2 nM | IC50 [3]: 1.9 nM | IC50 [4]: 1.7 nM | IC50 [5]: 1.8 nM | IC50 [6]: 1.4 nM | IC50 [7]: 7 nM

CCc1c(-c2ccc(F)cc2)c(=O)c(C(=O)Nc2ccc(Oc3ccnc4cc(OC)c(OC)cc34)cn2)cn1C(C)C [Example 29, N-(5-((6,7-dimethoxyquinolin-4yl)oxy)pyridin-2-yl)-6-ethyl-5-(4-fluorophenyl)-1-isopropyl-4-oxo-1,4-dihydropyridine-3-carboxamide]
IC50 [1]: 3.2 nM | IC50 [2]: 4.3 nM | IC50 [3]: 2.5 nM | IC50 [4]: 2.6 nM | IC50 [5]: 1.5 nM | IC50 [6]: 2.4 nM | IC50 [7]: 6 nM

COc1ccc(-c2cn(C(C)C)cc(C(=O)Nc3ccc(Oc4ccnc5cc(OC)c(OC)cc45)cn3)c2=O)cc1 [Example 30, N-(5-((6,7-dimethoxyquinolin-4yl)oxy)pyridin-2-yl)-1-isopropyl-5-(4-methoxyphenyl)-4-oxo-1,4-dihydropyridine-3-carboxamide]
IC50 [1]: 59.1 nM | IC50 [2]: 39.7 nM | IC50 [3]: 50.3 nM | IC50 [4]: 83.5 nM | IC50 [5]: 89.2 nM | IC50 [6]: 57.4 nM | IC50 [7]: 20 nM
